Laboratory results taken from US20040180035A1, “IL-15 immunoconjugates and uses thereof” (EMD Lexigen Research Center Corp., priority 1998, published 2004).

Test system: LLC-Ep tumors
Experiment: LLC-Ep subcutaneous tumor growth in C57BL/6 mice (Example 6)
Format: in vivo
Conditions: after treatment for 22 days; fusion protein 25 μg/mouse i.v., 5 daily injections; indomethacin 20 μg/mL in drinking water
Procedure: Female C57B1/6 mice were injected subcutaneously in the mid-back with LLC-Ep cells (2×10^6 cells per injection). When the tumors reached 600-1200 mm^3, the mice were sacrificed. The skin overlying the tumor was cleaned with betadine and ethanol, the tumors excised and necrotic tissue discarded. A suspension of tumor cells in phosphate buffered saline was prepared by passing viable tumor tissue through a sieve and then through a series of sequentially smaller […] needles of 22- to 30-gauge. The cells were adjusted to a concentration of 1×10^7 cells/mL and placed on ice. C57BL/6 mice then were injected with 0.1 mL of the freshly resuspended cells (1×10^6 cells/mouse) in the proximal midline of the subcutaneous dorsa.
When the tumors reached 100-200 mm^3 in size (about 7 to 14 days), the mice were randomized into four groups, 5 mice per group. Group 1 received intravenous injections of 0.2 mL of PBS daily. Group 2 received 5 daily intravenous injections of huKS-huγ1-huIL2 (25 μg/mouse) in PBS. Group 3 received indomethacin orally in drinking water (20 μg/mL, or about 60-70 μg of indomethacin consumed daily per mouse) throughout the treatment period. Group 4 received 5 daily intravenous injections of huKS-huγ1-huIL2(25 μg/mouse), and indomethacin orally in drinking water (20 μg/mL) throughout the treatment period. Tumor volumes were measured as described in Example 3. […]

`COc1ccc2c(c1)c(CC(=O)O)c(C)n2C(=O)c1ccc(Cl)cc1` [indomethacin] gave a T/C ratio of 0.60.
